Data as given in patent publication US20050033056A1, “Hydroxylated indole derivatives and uses thereof” (priority 2001, published 2005).
“Also recorded” adds a separate entry of the source. Like-named read-outs stand apart in the source and are kept apart here.

Tests used:
5-HT1A receptor = target: T1, 5-HT1A receptor (Homo sapiens, UniProt P08908); settings: background statement, see WO 98/43956 and EP 0 976 732 A1; cited from earlier work
T1 sequence (P08908 1-422): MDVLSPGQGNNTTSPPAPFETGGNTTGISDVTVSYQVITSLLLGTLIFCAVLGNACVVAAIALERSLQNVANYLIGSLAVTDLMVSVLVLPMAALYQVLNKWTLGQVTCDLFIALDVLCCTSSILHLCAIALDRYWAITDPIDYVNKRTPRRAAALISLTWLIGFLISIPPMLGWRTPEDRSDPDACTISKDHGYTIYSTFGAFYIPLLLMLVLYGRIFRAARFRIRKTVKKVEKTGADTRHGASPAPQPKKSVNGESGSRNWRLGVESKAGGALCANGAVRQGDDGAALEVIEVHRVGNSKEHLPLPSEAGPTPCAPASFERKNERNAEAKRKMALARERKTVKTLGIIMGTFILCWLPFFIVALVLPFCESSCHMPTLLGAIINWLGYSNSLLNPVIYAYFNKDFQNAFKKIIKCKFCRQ

[1] = target: T2, cDNA-expressed recombinant CYP2D6 (Homo sapiens, UniProt P10635); test: Apparent Ki with recombinant CYP2D6 (bufuralol 1'-hydroxylation; Dixon plots, SNLR); format: in vitro ADME; settings: for Ki: recombinant CYP2D6
T2 construct: purchased Gentest Corp. (Woburn, Mass.); host or cells: insect cells (microsomal preparation)
Procedure: If inhibition was detected, the inhibitory potency was determined using recombinant CYPs. Compound 1 appeared to inhibit the activities of CYP2D6 and CYP2C19. Therefore, three concentrations of S-mephenyloin (30, 80, and 200 μM) and bufuralol (5, 10, and 40 μM), and a range of concentrations (0-200 μM) of Compound 1 were used for the construction of Dixon plots and simultaneously nonlinear regression (SNLR) analyses were performed. The incubation conditions and sample preparations were the same as previously described.
3. CYP2D6-mediated bufuralol 1′-hydroxylation (Boobis et al., Bioch. Pharmacol. 34:65-71, 1985): The HPLC system was interfaced with a SCIEX API2000 triple quadrupole mass spectrometer (PE Biosystem, Foster City, Calif.). A Sulpelco Discovery C18 column (150×2.1 mm) and isocratic mobile phase was applied. The mobile phase, 10 mM ammonium acetate-acetonitrile/60:40, was run at 0.2 mL/minute. The operation of the LC/MS/MS was controlled by use of software, MacChrom (Version 1.6). The MS/MS was operated at positive ESI with 5.5 kV ionization potential and 500° C. ion source temperature. Multiple reaction monitoring (MRM) was applied for the quantification. The MRM transition ions were m/z 278→186 for 1′-hydroxybufuralol, and m/z 266→234 for the internal standard (1S) albendazole.
Data were acquired and analyzed by ChemStation (Version 6.03, Hewlett Packard, Waldbronn, Germany) for 6-, 7-, and 10-hydroxywarfarin and 6-hydroxychlorzoxazone, and MacQuan (Version 1.6, PE Biosystem, Foster City, Calif.) for 1′-hydroxybufuralol and 4′-hydroxymephenytoin. Quantification was based on peak area ratios of metabolites over the respective IS against the respective concentration of the metabolites. The standard curves were generated by linear regression with (6-, 7-, and 10-hydroxywarfarin, 1′-hydroxybufuralol, and 4′-hydroxymephenytoin) or without (6-hydroxychlorzoxazone) a weighting factor (1/x^2). The metabolic rates were determined using Excel (Microsoft Office 97, Microsoft Corporation, Redmond, Wash.) or SigmaPlot (Version 6.00, SPSS Inc. Chicago, Ill.). […]

T2 sequence (P10635 whole entry): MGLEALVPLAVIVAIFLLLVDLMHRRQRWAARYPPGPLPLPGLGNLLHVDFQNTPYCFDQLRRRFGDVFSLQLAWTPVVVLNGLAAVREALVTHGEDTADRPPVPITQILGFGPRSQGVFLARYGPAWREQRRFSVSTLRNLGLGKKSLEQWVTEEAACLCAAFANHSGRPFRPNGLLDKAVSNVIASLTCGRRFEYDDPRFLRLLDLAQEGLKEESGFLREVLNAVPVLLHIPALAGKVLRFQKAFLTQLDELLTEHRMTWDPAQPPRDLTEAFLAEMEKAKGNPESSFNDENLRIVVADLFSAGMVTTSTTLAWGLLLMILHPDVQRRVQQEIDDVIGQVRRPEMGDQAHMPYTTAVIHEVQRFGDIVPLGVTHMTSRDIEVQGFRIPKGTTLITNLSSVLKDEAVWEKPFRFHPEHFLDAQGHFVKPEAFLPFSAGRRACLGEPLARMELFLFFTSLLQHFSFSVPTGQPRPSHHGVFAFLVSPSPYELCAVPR

In the case of `CNC(=O)Cc1ccc2ccn(C3CCN(CCc4ccccc4F)CC3)c2c1` [Compound 1, N-methyl-[1-[1-(2-fluorophenethyl)piperidine-4-yl]-1H-indol-6-yl] acetamide], the “IC50, binding to 5-HT1A receptor” value (5-HT1A receptor) is listed as “low nanomolar”, the “type of inhibition of CYP2D6” value ([1]; Dixon plots and SNLR analyses) is listed as “competitive inhibitor; also recorded: primarily, if not fully, competitive” and the Ki ([1]; Dixon plots, bufuralol 5, 10, 40 μM, read-out: apparent Ki, CYP2D6, estimated by Dixon plots) is listed as ~20 µM. For the same compound, the Ki ([1]; SNLR, competitive inhibition model, read-out: apparent Ki, CYP2D6 inhibition, determined by SNLR) was 15 µM.
